Assay results reported in US9932637B2, “Genetic polymorphisms associated with cardiovascular disorders and drug response, methods of detection and uses thereof” (CELERA CORPORATION, priority 2003, dated 2018).

System: patients with prior myocardial infarction (CARE study)
Assay: CARE: association of SNPs with pravastatin treatment in cardiovascular events prevention (logistic regression, odds ratio pravastatin vs placebo by genotype; Table 8)
Type: in vivo, human
Conditions: All Patients; for Coronary Artery Bypass or Revascularization, n/total (%) / Total Coronary Heart Disease Events, n/total (%) / Fatal/Non-fatal Atherosclerotic CV Disease, n/total (%) / Hosp. for Cardiovascular Disease, n/total (%) / Total Cardiovascular Disease Events, n/total (%) / Fatal/Non-fatal MI (def & prob), n/total (%) / Fatal CHD/Definite Non-fatal MI, n/total (%) / Non-fatal MI (def & prob), n/total (%): Prava
Excerpt: In order to identify genetic markers associated with acute coronary events (e.g. MI, stroke, unstable angina, congestive heart failure, etc.) or response to statin treatment for the prevention of coronary events, samples from the Cholesterol and Recurrent Events (CARE) study (a randomized multicentral double-blinded trial on secondary prevention of acute coronary events with pravastatin) (Sacks et al., 1991, Am. J. Cardiol. 68: 1436-1446) were genotyped. A well-documented myocardial infarction (MI) was one of the enrollment criteria for entry into the CARE study. Patients were enrolled in the CARE trial from 80 participating study centers. […] Patients were randomized to receive either 40 mg of pravastatin once daily or a matching placebo. The primary endpoint of the trial was death from coronary heart disease and the median duration of follow-up was 5.0 years (range, 4.0 to 6.2 years). […] Secondary endpoints of other related cardiovascular or metabolic disease events, and changes in clinical variables were also recorded in pravastatin-treated and placebo groups. All individuals included in the study had signed a written informed consent form and the study protocol was approved by the respective Institutional Review Boards (IRBs).
For genotyping SNPs in CARE patient samples, DNA was extracted from blood samples using conventional DNA extraction methods such as the QIA-amp kit from Qiagen. Genotypes were obtained on an ABI PRISM® 7900HT Sequence Detection PCR system (Applied Biosystems, Foster City, Calif.) by kinetic allele-specific PCR, similar to the method described by Germer et al. (Germer S., Holland M. J., Higuchi R. 2000, Genome Res. 10: 258-266).
Statistical analysis for association of SNPs with pravastatin treatment in cardiovascular events prevention (Table 8) was carried out using an overall logistic regression model that included an intercept, a parameter for the effect of a genotype containing two rare alleles versus a genotype containing no rare alleles, a parameter for the effect of a genotype containing one rare allele versus a genotype containing no rare alleles, a parameter for the effect of use of pravastatin versus the use of placebo, and parameters for the interaction effects between SNP genotypes and pravastatin use. The test of the overall model is a chi-square test with two degrees of freedom for analyses containing all three genotypes, and one degree of freedom for analyses containing two genotypes.
Effect sizes were estimated through odds ratios (pravastatin group versus placebo) for carriers of each genotype (groups of 0, 1, and 2 minor allele carriers). The effect was considered to be significant if p-value for testing whether any of the interactions between SNP genotypes and pravastatin use were <0.05. […] Odds ratios less than one indicate that the specific SNP allele has a protective effect and odds ratios greater than one indicate that the specific SNP allele has an adverse effect.

[1] = HLA-DPB1 hCV8851085, Coronary Artery Bypass or Revascularization
[2] = HLA-DPB1 hCV8851085, Fatal/Non-fatal Atherosclerotic CV Disease
[3] = HLA-DPB1 hCV8851085, Fatal/Non-fatal MI (def & prob)
[4] = HLA-DPB1 hCV8851085, Hosp. for Cardiovascular Disease
[5] = HLA-DPB1 hCV8851085, Total Cardiovascular Disease Events
[6] = HLA-DPB1 hCV8851085, Total Coronary Heart Disease Events
[7] = HLA-DPB1 hCV25651174, 2 Rare Alleles, n/total 20/144

## CC[C@H](C)C(=O)O[C@H]1C[C@H](O)C=C2C=C[C@H](C)[C@H](CC[C@@H](O)C[C@@H](O)CC(=O)O)[C@H]21 [pravastatin]
HLA-DPB1 hCV8851085, 0 Rare Alleles, n/total 129/919
  Coronary Artery Bypass or Revascularization, n/total (%): (14.0%)
HLA-DPB1 hCV8851085, 0 Rare Alleles, n/total 263/919
  Total Coronary Heart Disease Events, n/total (%): (28.6%)
HLA-DPB1 hCV8851085, 0 Rare Alleles, n/total 301/919
  Fatal/Non-fatal Atherosclerotic CV Disease, n/total (%): (32.8%)
HLA-DPB1 hCV8851085, 0 Rare Alleles, n/total 363/919
  Hosp. for Cardiovascular Disease, n/total (%): (39.5%)
HLA-DPB1 hCV8851085, 0 Rare Alleles, n/total 374/919
  Total Cardiovascular Disease Events, n/total (%): (40.7%)
HLA-DPB1 hCV8851085, 1 Rare Allele, n/total 53/521
  Fatal/Non-fatal MI (def & prob), n/total (%): (10.2%)
HLA-DPB1 hCV8851085, 1 Rare Allele, n/total 72/521
  Coronary Artery Bypass or Revascularization, n/total (%): (13.8%)
HLA-DPB1 hCV8851085, 1 Rare Allele, n/total 151/521
  Total Coronary Heart Disease Events, n/total (%): (29.0%)
HLA-DPB1 hCV8851085, 1 Rare Allele, n/total 174/521
  Fatal/Non-fatal Atherosclerotic CV Disease, n/total (%): (33.4%)
HLA-DPB1 hCV8851085, 1 Rare Allele, n/total 209/521
  Hosp. for Cardiovascular Disease, n/total (%): (40.1%)
HLA-DPB1 hCV8851085, 1 Rare Allele, n/total 214/521
  Total Cardiovascular Disease Events, n/total (%): (41.1%)
HLA-DPB1 hCV8851085, 2 Rare Alleles, n/total 11/73
  Fatal/Non-fatal MI (def & prob), n/total (%): (15.1%)
HLA-DPB1 hCV8851085, 2 Rare Alleles, n/total 17/73
  Coronary Artery Bypass or Revascularization, n/total (%): (23.3%)
HLA-DPB1 hCV8851085, 2 Rare Alleles, n/total 26/73
  Total Coronary Heart Disease Events, n/total (%): (35.6%)
HLA-DPB1 hCV8851085, 2 Rare Alleles, n/total 29/73
  Fatal/Non-fatal Atherosclerotic CV Disease, n/total (%): (39.7%)
HLA-DPB1 hCV8851085, 2 Rare Alleles, n/total 33/73
  Hosp. for Cardiovascular Disease, n/total (%): (45.2%)
HLA-DPB1 hCV8851085, 2 Rare Alleles, n/total 35/73
  Total Cardiovascular Disease Events, n/total (%): (47.9%)
[1]
  Prava vs. Placebo Odds Ratio, 0 Rare Alleles: 0.68
  Prava vs. Placebo Odds Ratio, 1 Rare Alleles: 0.60
  Prava vs. Placebo Odds Ratio, 2 Rare Alleles: 3.54
[2]
  Prava vs. Placebo Odds Ratio, 0 Rare Alleles: 0.70
  Prava vs. Placebo Odds Ratio, 1 Rare Alleles: 0.79
  Prava vs. Placebo Odds Ratio, 2 Rare Alleles: 2.12
[3]
  Prava vs. Placebo Odds Ratio, 0 Rare Alleles: 0.57
  Prava vs. Placebo Odds Ratio, 1 Rare Alleles: 0.75
  Prava vs. Placebo Odds Ratio, 2 Rare Alleles: 2.07
[4]
  Prava vs. Placebo Odds Ratio, 0 Rare Alleles: 0.71
  Prava vs. Placebo Odds Ratio, 1 Rare Alleles: 0.74
  Prava vs. Placebo Odds Ratio, 2 Rare Alleles: 1.79
[5]
  Prava vs. Placebo Odds Ratio, 0 Rare Alleles: 0.70
  Prava vs. Placebo Odds Ratio, 1 Rare Alleles: 0.74
  Prava vs. Placebo Odds Ratio, 2 Rare Alleles: 1.77
[6]
  Prava vs. Placebo Odds Ratio, 0 Rare Alleles: 0.72
  Prava vs. Placebo Odds Ratio, 1 Rare Alleles: 0.76
  Prava vs. Placebo Odds Ratio, 2 Rare Alleles: 2.25
HLA-DPB1 hCV25651174, 0 Rare Alleles, n/total 58/733
  Fatal CHD/Definite Non-fatal MI, n/total (%): (7.9%)
HLA-DPB1 hCV25651174, 0 Rare Alleles, n/total 63/733
  Non-fatal MI (def & prob), n/total (%): (8.6%)
HLA-DPB1 hCV25651174, 0 Rare Alleles, n/total 65/733
  Fatal/Non-fatal MI (def & prob), n/total (%): (8.9%)
HLA-DPB1 hCV25651174, 0 Rare Alleles, n/total 103/733
  Coronary Artery Bypass or Revascularization, n/total (%): (14.1%)
HLA-DPB1 hCV25651174, 0 Rare Alleles, n/total 207/733
  Total Coronary Heart Disease Events, n/total (%): (28.2%)
HLA-DPB1 hCV25651174, 0 Rare Alleles, n/total 230/733
  Fatal/Non-fatal Atherosclerotic CV Disease, n/total (%): (31.4%)
HLA-DPB1 hCV25651174, 0 Rare Alleles, n/total 282/733
  Hosp. for Cardiovascular Disease, n/total (%): (38.5%)
HLA-DPB1 hCV25651174, 0 Rare Alleles, n/total 291/733
  Total Cardiovascular Disease Events, n/total (%): (39.7%)
HLA-DPB1 hCV25651174, 1 Rare Allele, n/total 55/632
  Non-fatal MI (def & prob), n/total (%): (8.7%)
HLA-DPB1 hCV25651174, 1 Rare Allele, n/total 61/632
  Fatal/Non-fatal MI (def & prob), n/total (%): (9.7%)
HLA-DPB1 hCV25651174, 1 Rare Allele, n/total 62/632
  Fatal CHD/Definite Non-fatal MI, n/total (%): (9.8%)
HLA-DPB1 hCV25651174, 1 Rare Allele, n/total 87/632
  Coronary Artery Bypass or Revascularization, n/total (%): (13.8%)
HLA-DPB1 hCV25651174, 1 Rare Allele, n/total 182/632
  Total Coronary Heart Disease Events, n/total (%): (28.8%)
HLA-DPB1 hCV25651174, 1 Rare Allele, n/total 218/632
  Fatal/Non-fatal Atherosclerotic CV Disease, n/total (%): (34.5%)
HLA-DPB1 hCV25651174, 1 Rare Allele, n/total 259/632
  Hosp. for Cardiovascular Disease, n/total (%): (41.0%)
HLA-DPB1 hCV25651174, 1 Rare Allele, n/total 265/632
  Total Cardiovascular Disease Events, n/total (%): (41.9%)
HLA-DPB1 hCV25651174, 2 Rare Alleles, n/total 16/144
  Non-fatal MI (def & prob), n/total (%): (11.1%)
[7]
  Fatal CHD/Definite Non-fatal MI, n/total (%): (13.9%)
  Fatal/Non-fatal MI (def & prob), n/total (%): (13.9%)
HLA-DPB1 hCV25651174, 2 Rare Alleles, n/total 27/144
  Coronary Artery Bypass or Revascularization, n/total (%): (18.8%)
HLA-DPB1 hCV25651174, 2 Rare Alleles, n/total 50/144
  Total Coronary Heart Disease Events, n/total (%): (34.7%)
HLA-DPB1 hCV25651174, 2 Rare Alleles, n/total 54/144
  Fatal/Non-fatal Atherosclerotic CV Disease, n/total (%): (37.5%)
HLA-DPB1 hCV25651174, 2 Rare Alleles, n/total 61/144
  Hosp. for Cardiovascular Disease, n/total (%): (42.4%)
